One experiment deals with HCT-116 colon carcinoma. Put plainly: Cell Proliferation Inhibition Assay (14C-thymidine incorporation), HCT116. The format is cell-based. The following applies: Homo sapiens, HCT116 cells. As for the experimental part:
(§1) The ability of a test compound to inhibit unregulated cell proliferation was determined by measuring incorporation of ^14C-labelled thymidine into newly synthesized DNA within cell lines derived from carcinomas originating from several tissues. Accordingly, the anti-proliferative effect of a compound on cells with a variety of phenotypes may be determined.
(§2) Carcinoma cell lines include those such as HeLa cervical adenocarcinoma (American Type Culture Collection (ATCC), Virginia, Cat. #CCL-2), A375 malignant melanoma (ATCC CRL-1619), SK-OV-3 ovarian adenocarcinoma (ATCC HTB-77), HCT-116 colon carcinoma (CCL-247), PC-3 prostate adenocarcinoma (ATCC CRL-1435), and MDA-MB-231 (Xenogen Corp.)
(§3) The carcinoma cells were trypsinized and counted. The cells (3000-8000 count) were added to each well of a 96-well CytoStar tissue culture treated scintillating microplate (Amersham #RPNQ0160) in complete medium (100 μL) and the plate was then incubated in complete medium for 24 hrs at 37° C. in an […] atmosphere containing 5% CO2. Test compound (1 μL) in 100% DMSO was added to the plate test-wells with DMSO only added to control-wells. The plate was incubated in complete medium for a second 24 hr period at 37° C. in an atmosphere containing 5% CO2.
(§4) An aliquot of a solution of methyl ^14C-thymidine (56 mC/mmol) (NEN #NEC568 or Amersham #CFA532) and complete medium (20 uL to provide 0.2 μCi/well) was then added to each well and the plate was incubated for a third 24 hr period at 37° C. in an atmosphere containing 5% CO2. The plate contents were then discarded, the plate was washed twice with PBS (200 μL) and then PBS (200 μL) was added to each well. The plate was sealed and the degree of methyl ^14C-thymidine incorporation was quantified on a Packard Top Count.

In experiment [1] the test system is HeLa cervical adenocarcinoma. Kind of experiment: Cell Proliferation Inhibition Assay (14C-thymidine incorporation), HeLa. The format is cell-based. The following applies: Homo sapiens; HeLa cells. As for the experimental part:
as §1, §2, §3, §4
In general terms: Uptake of a labelled nucleoside into DNA is a usual measure of proliferation.

The target of a further experiment is T1, Aurora-A (Mus musculus, UniProt P97477).
T1 construct: followed by the full length protein encoding the murine Aurora-A; polyhistidine (N); made in house; host or cells: Sf9 insect cells
T1 sequence (P97477 1-395): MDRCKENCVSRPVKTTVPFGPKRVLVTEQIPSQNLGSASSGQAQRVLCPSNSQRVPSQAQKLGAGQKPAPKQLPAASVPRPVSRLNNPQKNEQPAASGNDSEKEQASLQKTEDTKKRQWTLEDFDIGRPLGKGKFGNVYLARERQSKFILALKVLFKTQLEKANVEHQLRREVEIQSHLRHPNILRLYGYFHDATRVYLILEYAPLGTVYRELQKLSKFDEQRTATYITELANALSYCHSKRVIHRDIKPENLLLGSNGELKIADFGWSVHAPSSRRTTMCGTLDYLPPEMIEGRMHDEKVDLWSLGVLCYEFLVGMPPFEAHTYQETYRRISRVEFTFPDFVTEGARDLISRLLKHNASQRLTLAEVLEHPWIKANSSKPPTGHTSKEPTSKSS
Put plainly: Aurora-A Screening Assay. The format is biochemical. The following applies: murine Aurora-A full length, 10 μM ATP. The procedure: A kinase reaction mixture was prepared containing 50 mM Tris-HCl at pH 8, 10 mM MgCl2, 0.1 mM Na3PO4, 1 mM DTT, 10 μM ATP, 0.025 μM biotinylated histone-H1 peptide substrate and 0.2 μCuries per well ^33P-γ-ATP (2000-3000 Ci/mmol). 70 μL of the kinase reaction mixture was dispensed into the well of a Streptavidin FlashPlate.
Test compound stock in 100% DMSO (1 μL) was added to the wells resulting in a final concentration of 1% DMSO in the reaction with a 100 μL final reaction volume. Each enzyme was diluted in 50 mM Tris-HCl pH=8.0, 0.1% BSA and 30 μL was added to each well to initiate the reaction. The reaction was incubated for one hour at 30° C. At the end of the 1 hr incubation, the reaction was terminated by aspirating the mixture from the plate and washing the wells twice with PBS containing 100 mM EDTA. The biotinylated peptide substrate became immobilized on the Flashplate™ and the incorporation of ^33P-γ-ATP was measured by reading the plate on a scintillation counter. Inhibition of the enzymatic activity was measured by observing a reduced amount of ^33P-γ-ATP incorporated into the immobilized peptide.
Aurora-A is a fusion protein containing a polyhistidine tag at the N terminus followed by the full length protein encoding the murine Aurora-A (Accession number GB BC014711) expressed and purified from sf9 insect cells. The assay used 400 ng of the N-terminal biotinylated peptide biotin-GRTGRRNSI-amide (Aurora-A) per well.
The IC50 was derived according to the procedure described in Example 1.

In a further experiment the target is T2, HER-2 (Homo sapiens, UniProt P04626).
T2 construct: the nucleotides encoding amino acids 679 to 1255 of HER-2; HIS6-Thrombin (His6 tag and thrombin site) (N); purchased Proqinase (Freiburg, Germany)
T2 sequence (P04626 679-1255): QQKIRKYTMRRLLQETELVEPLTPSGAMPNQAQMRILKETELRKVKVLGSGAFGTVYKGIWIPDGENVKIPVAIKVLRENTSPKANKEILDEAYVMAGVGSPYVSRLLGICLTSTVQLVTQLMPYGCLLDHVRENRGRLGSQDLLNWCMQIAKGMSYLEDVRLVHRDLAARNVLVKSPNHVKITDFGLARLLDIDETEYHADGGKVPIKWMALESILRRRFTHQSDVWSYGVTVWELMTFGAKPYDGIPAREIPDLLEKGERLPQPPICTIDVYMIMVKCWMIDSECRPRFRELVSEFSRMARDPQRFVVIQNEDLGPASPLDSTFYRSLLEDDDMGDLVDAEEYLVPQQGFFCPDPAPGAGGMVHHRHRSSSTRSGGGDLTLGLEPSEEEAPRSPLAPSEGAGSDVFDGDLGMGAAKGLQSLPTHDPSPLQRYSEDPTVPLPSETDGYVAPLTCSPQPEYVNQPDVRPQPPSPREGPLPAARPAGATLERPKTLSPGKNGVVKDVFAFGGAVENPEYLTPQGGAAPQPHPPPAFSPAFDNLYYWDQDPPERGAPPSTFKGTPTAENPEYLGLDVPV
Put plainly: HER-2 Kinase Assay. The format is biochemical. The following applies: GST-HER2, 1 μM ATP. As for the experimental part: HER-2 kinase was purified at Proqinase (Freiburg, Germany) from a construct that consisted of a fusion of GST (Glutathione-S-Transferase), HIS6-Thrombin and the nucleotides encoding amino acids 679 to 1255 of HER-2.
A mixture of a 10× kinase reaction buffer (600 mM Hepes at pH 7.5, 30 mM Magnesium Chloride, 0.03 mM Sodium Vanadate and 500 μg/mL PEG 20,000), DTT (1.2 mM final from a 10 mM stock), ATP (1 μM from a 10 mM stock), biotinylated polyGluTyr (1.5 ng/μL final from stock of 1 μg/μL prepared by Upstate Biotechnologies, Lake Placid, N.Y.), Manganese Chloride (3 mM final from a 1 M stock), γ-^33P-ATP (10 μCi/μL stock) and water (70 μL/well) was added to each well of a Streptavidin Flashplate (Cat. # SMP103, NEN, Boston, Mass.).
Test compound stock (1 μL) was added to the appropriate wells. Diluted GSTHER2 kinase (6.7 ng/μL diluted into 50 mM Tris-HCl at pH 8.0 and 0.1% bovine serum albumin) (30 μL) was added (total volume of 200 ng/well) to initiate the reactions.
The reaction plates were incubated at 30° C. for 1 hr. The reaction was terminated by aspirating the reaction mixture from the plate wells and washing the wells three times with a 1×PBS stop buffer (300 μL) and 100 mM EDTA. After the final wash, the same stop buffer (200 μL) was again added to the wells. The plates were then sealed and read on the TopCount scintillation counter. The IC50 was derived according to the procedure described in Example 1.

The values that follow come from patent US20080108611A1, “SUBSTITUTED THIENOPYRIMIDINE KINASE INHIBITORS” (priority 2006, published 2008).

In general, IC50 refers to the concentration that gives 50% inhibition. High values mean weaker potency, low ones greater potency.

Regarding `Cc1cc2c(F)c(Oc3ncnc4sc(C(=O)NCCN5CCOCC5)c(C)c34)ccc2[nH]1` [Cpd 19, 4-(4-fluoro-2-methyl-1H-indol-5-yloxy)-5-methyl-thieno[2,3-d]pyrimidine-6-carboxylic acid (2-morpholin-4-yl-ethyl)-amide], the IC50 with HCT-116 colon carcinoma was over 10 µM; in experiment [1], over 10 µM; on Aurora-A, over 100 µM; at HER-2, over 100 µM.
`Cc1cc2c(F)c(Oc3ncnc4sc(C(=O)Nc5ccc(CN6CCOCC6)cc5)c(C)c34)ccc2[nH]1` [Cpd 20, 4-(4-fluoro-2-methyl-1H-indol-5-yloxy)-5-methyl-thieno[2,3-d]pyrimidine-6-carboxylic acid (4-morpholin-4-ylmethyl-phenyl)-amide]: the IC50 with HCT-116 colon carcinoma is over 10 µM; in experiment [1] it was over 10 µM; on Aurora-A, over 100 µM; against HER-2 it was over 100 µM.
Consider `Cc1cc2c(F)c(Oc3ncnc4sc(C(=O)NCCN5CCCCC5)c(C)c34)ccc2[nH]1` [Cpd 21, 4-(4-fluoro-2-methyl-1H-indol-5-yloxy)-5-methyl-thieno[2,3-d]pyrimidine-6-carboxylic acid (2-piperidin-1-yl-ethyl)-amide], for which the IC50 with HCT-116 colon carcinoma was 9.4 µM; in experiment [1], 8.5 µM; against Aurora-A, over 100 µM; against HER-2, over 100 µM.
Consider `Cc1cc2c(F)c(Oc3ncnc4sc(C(=O)NCCN5CCCC5)c(C)c34)ccc2[nH]1` [Cpd 22, 4-(4-fluoro-2-methyl-1H-indol-5-yloxy)-5-methyl-thieno[2,3-d]pyrimidine-6-carboxylic acid (2-pyrrolidin-1-yl-ethyl)-amide], for which the IC50 with HCT-116 colon carcinoma was 22.3 µM; in experiment [1], 15.2 µM; against Aurora-A, over 100 µM; against HER-2, over 100 µM.
On to `Cc1c(C(=O)Nc2ccc(CN3CCOCC3)cc2)sc2ncnc(Nc3ccc(Oc4ccccc4)cc3)c12` [Cpd 23, 5-methyl-4-(4-phenoxy-phenylamino)-thieno[2,3-d]pyrimidine-6-carboxylic acid (4-morpholin-4-ylmethyl-phenyl)-amide], for which the IC50 was 7.1 µM in the experiment with HCT-116 colon carcinoma, over 10 µM in experiment [1], over 100 µM on Aurora-A and over 100 µM at HER-2.
Regarding `Cc1c(C(=O)NCCN2CCOCC2)sc2ncnc(Nc3ccc(Oc4ccccc4)cc3)c12` [Cpd 24], the IC50 in the experiment on HCT-116 colon carcinoma was over 10 µM; in experiment [1] it was over 100 µM; against Aurora-A, over 100 µM; on HER-2, over 10 µM.
For `COCCNC(=O)c1sc2ncnc(Oc3ccc4[nH]c(C)cc4c3F)c2c1C` [Cpd 27, 4-(4-fluoro-2-methyl-1H-indol-5-yloxy)-5-methyl-thieno[2,3-d]pyrimidine-6-carboxylic acid (2-methoxy-ethyl)-amide], the IC50 (in the experiment on HCT-116 colon carcinoma; in experiment [1]; on Aurora-A; against HER-2) was over 10 µM in each case.
